Data as given in US20210253575A1, “PYRROLIDINE AMINE COMPOUNDS FOR THE TREATMENT OF AUTOIMMUNE DISEASE” (Hoffmann-La Roche Inc., priority 2018, published 2021).

Molecular target: T1, human TLR9 (Homo sapiens, UniProt Q9NR96)
T1 sequence (Q9NR96 26-1032): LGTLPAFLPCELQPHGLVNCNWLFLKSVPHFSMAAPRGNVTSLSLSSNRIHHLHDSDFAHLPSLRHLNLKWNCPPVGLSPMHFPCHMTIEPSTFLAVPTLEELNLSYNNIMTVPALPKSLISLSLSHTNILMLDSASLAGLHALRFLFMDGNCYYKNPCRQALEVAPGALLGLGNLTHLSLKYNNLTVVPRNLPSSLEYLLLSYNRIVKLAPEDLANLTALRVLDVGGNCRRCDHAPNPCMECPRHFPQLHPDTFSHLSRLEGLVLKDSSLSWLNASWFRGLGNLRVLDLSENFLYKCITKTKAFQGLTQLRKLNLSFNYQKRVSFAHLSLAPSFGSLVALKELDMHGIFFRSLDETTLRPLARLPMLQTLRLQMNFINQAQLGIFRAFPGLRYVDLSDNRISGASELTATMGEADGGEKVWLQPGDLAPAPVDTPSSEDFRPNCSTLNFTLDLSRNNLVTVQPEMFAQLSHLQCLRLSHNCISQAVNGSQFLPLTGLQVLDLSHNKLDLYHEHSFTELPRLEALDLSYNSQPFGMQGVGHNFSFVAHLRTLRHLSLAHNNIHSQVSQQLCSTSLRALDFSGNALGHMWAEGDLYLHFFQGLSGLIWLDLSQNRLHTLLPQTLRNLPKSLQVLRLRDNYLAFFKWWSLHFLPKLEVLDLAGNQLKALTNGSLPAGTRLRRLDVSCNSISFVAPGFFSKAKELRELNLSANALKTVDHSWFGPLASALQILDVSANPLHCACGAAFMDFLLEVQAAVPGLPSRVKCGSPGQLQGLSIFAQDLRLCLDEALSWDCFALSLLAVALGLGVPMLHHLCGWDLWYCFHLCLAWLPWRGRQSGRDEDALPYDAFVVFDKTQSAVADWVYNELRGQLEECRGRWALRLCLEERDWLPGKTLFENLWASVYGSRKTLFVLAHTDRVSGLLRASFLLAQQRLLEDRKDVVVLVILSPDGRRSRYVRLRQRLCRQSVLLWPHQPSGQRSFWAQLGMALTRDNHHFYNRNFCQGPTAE
Assay: HEK293-Blue-hTLR-9 cells assay (SEAP reporter, ODN2006 stimulation)
Format: cell-based
Conditions: HEK293-Blue-hTLR9 cells, ODN2006 ligand, 20 hrs incubation
Procedure: The following tests were carried out in order to determine the activity of the compounds of formula (I) in HEK293-Blue-hTLR-7/8/9 cells assay.
HEK293-Blue-hTLR-9 Cells Assay:
A stable HEK293-Blue-hTLR-9 cell line was purchased from InvivoGen (Cat. #: hkb-htlr9, San Diego, Calif., USA). These cells were originally designed for studying the stimulation of human TLR9 by monitoring the activation of NF-κB. A SEAP (secreted embryonic alkaline phosphatase) reporter gene was placed under the control of the IFN-β minimal promoter fused to five NF-κB and AP-1-binding sites. The SEAP was induced by activating NF-κB and AP-1 via stimulating HEK-Blue hTLR9 cells with TLR9 ligands. Therefore the reporter expression was declined by TLR9 antagonist under the stimulation of a ligand, such as ODN2006 (Cat. #: tlrl-2006-1, Invivogen, San Diego, Calif., USA), for incubation of 20 hrs. The cell culture supernatant SEAP reporter activity was determined using QUANTI-Blue™ kit (Cat. #: rep-qb1, Invivogen, San Diego, Calif., USA) at a wavelength of 640 nm, a detection medium that turns purple or blue in the presence of alkaline phosphatase.
HEK293-Blue-hTLR9 cells were incubated at a density of 250,000˜450,000 cells/mL in a volume of 170 μL in a 96-well plate in Dulbecco's Modified Eagle's medium (DMEM) containing 4.5 g/L glucose, 50 U/mL penicillin, […], […], 2 mM L-glutamine, 10% (v/v) heat-inactivated fetal bovine serum with addition of 20 μL test compound in a serial dilution in the presence of final DMSO at 1% and 10 μL of 20 uM ODN2006 in above DMEM, perform incubation under 37° C. in a CO2incubator for 20 hrs. Then 20 μL of the superatant from each well was incubated with 180 μL Quanti-blue substrate solution at 37° C. for 2 hrs and the absorbance was read at 620˜655 nm using a spectrophotometer. The signalling pathway that TLR9 activation leads to downstream NF-κB activation has been widely accepted, and therefore similar reporter assay was modified for evaluating TLR9 antagonist.

With `CC[C@@H]1CN(c2ccc(C#N)c3ncccc23)C[C@H]1CN1CCC2(CCNCC2)CC1` (relative stereo) [Example 15, 5-[Trans-3-(3,9-diazaspiro[5.5]undecan-3-ylmethyl)-4-ethyl-pyrrolidin-1-yl]quinoline-8-carbonitrile] the IC50 was 32 nM.

Compound `FC(F)(F)c1ccc(N2C[C@@H](CN3CCC4(CCNC4)C3)[C@H](C(F)(F)F)C2)c2nccnc12` (relative stereo) [Example 19, 5-[Trans-3-(2,7-diazaspiro[4.4]nonan-2-ylmethyl)-4-(trifluoromethyl)pyrrolidin-1-yl]-8-(trifluoromethyl)quinoxaline] has an IC50 of 815 nM.

Work on `C[C@@H]1CN(c2ccc(C(F)(F)F)c3nccnc23)C[C@H]1CN1CCC2(CCNCC2)CC1` (relative stereo) [Example 21, 3-[[Trans-4-methyl-1-[8-(trifluoromethyl)quinoxalin-5-yl]pyrrolidin-3-yl]methyl]-3,9-diazaspiro[5.5]undecane] yielded an IC50 of 294 nM.

Compound `N#Cc1ccc(N2C[C@@H](CN3CCC4(CCNCC4)CC3)[C@H](C(F)F)C2)c2cccnc12` (relative stereo) [Example 27, 5-[Trans-3-(3,9-diazaspiro[5.5]undecan-3-ylmethyl)-4-(difluoromethyl)pyrrolidin-1-yl]quinoline-8-carbonitrile] has an IC50 of 32 nM.

Work on `N#Cc1ccc(N2C[C@@H](CN3CCC4(CCNCC4)CC3)[C@H](C3CC3)C2)c2cccnc12` (relative stereo) [Example 28, 5-[Trans-3-cyclopropyl-4-(3,9-diazaspiro[5.5]undecan-3-ylmethyl)pyrrolidin-1-yl]quinoline-8-carbonitrile] yielded an IC50 of 39 nM.

For `CC[C@@H]1CN(c2ccc(C#N)c3ncccc23)C[C@H]1CN1CCC2(CCNC2)C1` (relative stereo) [Example 29, 5-[Trans-3-(2,7-diazaspiro[4.4]nonan-2-ylmethyl)-4-ethyl-pyrrolidin-1-yl]quinoline-8-carbonitrile], the IC50 was 56 nM.

For `C[C@@H]1CN(c2ccc(C(F)(F)F)c3nccnc23)C[C@H]1CN1CCC(N2CCCCC2)CC1` (relative stereo) [Example 33, 5-[Trans-3-methyl-4-[[4-(1-piperidyl)-1-piperidyl]methyl]pyrrolidin-1-yl]-8-(trifluoromethyl)quinoxaline], the IC50 was 863 nM.

Work on `N#Cc1ccc(N2C[C@@H](CN3CCC4(CCNC4)C3)[C@H](C(F)F)C2)c2cccnc12` (relative stereo) [Example 34, 5-[Trans-3-(2,7-diazaspiro[4.4]nonan-2-ylmethyl)-4-(difluoromethyl)pyrrolidin-1-yl]quinoline-8-carbonitrile] yielded an IC50 of 85 nM.

Work on `CC(C)[C@@H]1CN(c2ccc(C#N)c3ncccc23)C[C@H]1CN1CCC2(CCNCC2)CC1` (relative stereo) [Example 36, 5-[Trans-3-(3,9-diazaspiro[5.5]undecan-3-ylmethyl)-4-isopropyl-pyrrolidin-1-yl]quinoline-8-carbonitrile] yielded an IC50 of 50 nM.

For `CC(C)[C@@H]1CN(c2ccc(C#N)c3ncccc23)C[C@H]1CN1CCC2(CCNC2)C1` (relative stereo) [Example 44, 5-[Trans-3-(2,7-diazaspiro[4.4]nonan-2-ylmethyl)-4-isopropyl-pyrrolidin-1-yl]quinoline-8-carbonitrile], the IC50 was 91 nM.

`N#Cc1ccc(N2CC(CN3CCC(N)CC3)C3(CC3)C2)c2nccnc12` (single isomer, unassigned) [Example 68A, 8-[7-[(4-Amino-1-piperidyl)methyl]-5-azaspiro[2.4]heptan-5-yl]quinoxaline-5-carbonitrile] was tested, and the IC50 was 71 nM.

`N#Cc1ccc(N2C[C@H](CN3CCC4(CCNCC4)CC3)[C@@H](C(F)(F)F)C2)c2nccnc12` [Example 1, 8-[(3S,4R)-3-(3,9-diazaspiro[5.5]undecan-3-ylmethyl)-4-(trifluoromethyl)pyrrolidin-1-yl]quinoxaline-5-carbonitrile] showed an IC50 of 106 nM.

In the case of `N#Cc1ccc(N2C[C@H](CN3CCC4(CCNCC4)CC3)[C@@H](C(F)(F)F)C2)c2cccnc12` [Example 2, 5-[(3S,4R)-3-(3,9-diazaspiro[5.5]undecan-3-ylmethyl)-4-(trifluoromethyl)pyrrolidin-1-yl]quinoline-8-carbonitrile], the IC50 is reported as 76 nM.

In the case of `N#Cc1ccc(N2C[C@H](CN3CCC4(CCNC4)C3)[C@@H](C(F)(F)F)C2)c2nccnc12` (stereo partly drawn) [Example 5, 8-[(3S,4R)-3-(2,7-diazaspiro[4.4]nonan-2-ylmethyl)-4-(trifluoromethyl)pyrrolidin-1-yl]quinoxaline-5-carbonitrile], the IC50 is reported as 137 nM.

With `N#Cc1ccc(N2C[C@H](CN3CCC4(CCCNC4)C3)[C@@H](C(F)(F)F)C2)c2cccnc12` (stereo partly drawn) [Example 6, 5-[(3S,7R)-3-(2,9-diazaspiro[4.5]decan-2-ylmethyl)-4-(trifluoromethyl)pyrrolidin-1-yl]quinoline-8-carbonitrile] the IC50 was 136 nM.

With `CC1(N)CCN(CC2CN(c3ccc(C#N)c4nccnc34)CC23CC3)CC1` (centres unmarked) [Example 7, 8-[7-[(4-Amino-4-methyl-1-piperidyl)methyl]-5-azaspiro[2.4]heptan-5-yl]quinoxaline-5-carbonitrile] the IC50 was 77 nM.

Work on `N#Cc1ccc(N2C[C@H](CN3CC4(CCCNC4)C3)[C@@H](C(F)(F)F)C2)c2cccnc12` [Example 8, 5-[(3S,7R)-3-(2,8-diazaspiro[3.5]nonan-2-ylmethyl)-4-(trifluoromethyl)pyrrolidin-1-yl]quinoline-8-carbonitrile] yielded an IC50 of 113 nM.

`N#Cc1ccc(N2C[C@H](CN3CCC4(CCNC4)C3)[C@@H](C(F)(F)F)C2)c2cccnc12` (stereo partly drawn) [Example 9, 5-[(3S,4R)-3-(2,7-diazaspiro[4.4]nonan-2-ylmethyl)-4-(trifluoromethyl)pyrrolidin-1-yl]quinoline-8-carbonitrile] gave an IC50 of 104 nM.

In the case of `N#Cc1ccc(N2C[C@H](CN3CCC(N4CCCCC4)CC3)[C@@H](C(F)(F)F)C2)c2cccnc12` [Example 10, 5-[(3S,4R)-3-[[4-(1-piperidyl)-1-piperidyl]methyl]-4-(trifluoromethyl)pyrrolidin-1-yl]quinoline-8-carbonitrile], the IC50 is reported as 834 nM.

With `N#Cc1ccc(N2CC(CN3CCC(N4CCCCC4)CC3)C3(CC3)C2)c2nccnc12` (centres unmarked) [Example 11, 8-[7-[[4-(1-Piperidyl)-1-piperidyl]methyl]-5-azaspiro[2.4]heptan-5-yl]quinoxaline-5-carbonitrile] the IC50 was 125 nM.

For `CC1(N)CCN(C[C@H]2CN(c3ccc(C#N)c4nccnc34)C[C@@H]2C(F)(F)F)CC1` [Example 12, 8-[(3S,4R)-3-[(4-amino-4-methyl-1-piperidyl)methyl]-4-(trifluoromethyl)pyrrolidin-1-yl]quinoxaline-5-carbonitrile], the IC50 was 219 nM.

`N#Cc1ccc(N2CC(CN3CCC4(CCCNC4)CC3)C3(CC3)C2)c2nccnc12` (centres unmarked) [Example 13, 8-[7-(2,9-Diazaspiro[5.5]undecan-9-ylmethyl)-5-azaspiro[2.4]heptan-5-yl]quinoxaline-5-carbonitrile] showed an IC50 of 60 nM.

`N#Cc1ccc(N2C[C@H](CN3CCC4(CCNC4)CC3)[C@@H](C(F)(F)F)C2)c2nccnc12` [Example 14, 8-[(3S,4R)-3-(2,8-Diazaspiro[4.5]decan-8-ylmethyl)-4-(trifluoromethyl)pyrrolidin-1-yl]quinoxaline-5-carbonitrile] was tested, and the IC50 was 153 nM.
